These results are taken from patent publication US5886185A, “Polyamine-linked acridine dimers” (Development Center for Biotechnoloy, priority 1997, dated 1999).

Series [1] concerns pUC19 plasmid. In words: DNA intercalating assay (DNA band shift). The series is classed as binding. How it is done: A culture of JM83 bacteria containing a pUC19 plasmid was grown in 500 mL of ampicillin culture medium, and harvested by centrifugation at 4000 rpm for 15 minutes at 4° C. The pellets were lysed by alkali method and the DNA plasmids were collected as the lower band (corresponding to the closed circular DNA) of a centrifuge tube after CsCl-ethidium bromide gradient centrifugation. This collection method is described in, for example, Molecular Cloning: A Laboratory Manual, Cold Spring Harbor Laboratory Press, (1989). After removal of ethidium bromide from the DNA plasmids with 1-butanol saturated with water, the CsCl was removed by dialysis with TE (pH 8.0) buffer.
The pUC19 plasmid (1 μg in each reaction) was incubated with various concentrations of solutions containing different polyamine-linked acridine dimers for 30 minutes at 25° C. in 20 μL reaction mixtures (10 mM Tris-HCl, pH 7.4, 0.1 mM EDTA, and 5 mM NaCl). After reaction, the DNA mixture was run on a 1.0% agarose gel, which was stained with ethidium bromide and destained with distilled water. The shifts of the DNA bands were visualized using UV light and analyzed by photography. The DNA band shifting pattern formed a sigmoidal curve. The 50% shift concentration (SC50) corresponded to a 50% DNA band shift at the particular concentration, according to the curve of the DNA band-shifting photograph.

Series [2] is described as follows: water solubility. Particulars: Table I. The series is classed as physicochemical.
The subject of series [3] is human COLO 205 solid tumors. In words: in vivo antitumor activity for human COLO 205 solid tumors. The arrangement: species or system human tumor in SCID mice. How it is done: SCID mice (16-18 g, 4-5 weeks old) were obtained from the animal center at the medical center of National Taiwan University, Taipei, R.O.C. and allowed to acclimate to their new environment for one week. The mice were given a sterilized pellet diet and sterilized water ad libitum, and housed under specific pathogene-free conditions in a temperature range between 23°-25° C. and a humidity of about 50±10%. The lighting was automatically operated on a 12 hour light/dark cycle. COLO 205 cells were obtained from ATCC, propagated in culture medium, and subcutaneously inoculated into the dorsal site of the mice.
After solid tumors were grown up to a size of about 1 gram, COLO 205F1 was isolated from the primary culture of the solid tumor and inoculated into the dorsal site of the mice. These tumors were grown to a size of approximately 200 mg (i.e., in a range of 100-300 mg). The mice were sorted according to body weight into groups including five mice. The compounds of Examples 5 and 6 were respectively resuspended in various solvents. The dosage of each compound was intraperitoneally (ip) or intravenously (iv) administered with different schedules. Tumor weights at the beginning of chemotherapy and at weekly intervals thereafter were estimated using two dimensional caliper measurements and calculated with the formula for an ellipsoid. Tumor weight was L X W^2 ×0.5, where L is the major axis and […] is the width of the tumor. The percentage of tumor growth (%TGI) was calculated according to the formula (1-(mean tumor weight of treated group/mean tumor weight of control group))×100. The tumor weights were corrected for tumor weight at the beginning of treatment. Tumor growth inhibition data were analyzed for statistical significance using the pooled variance t test. The tumor weights were monitored until termination of experiment.
Several studies of salt preparations, different formulations, and various administration routes and schedules were performed for the compounds of example 5 or 6 in order to identify their in vivo antitumor activities for human COLO 205 solid tumors. Tumor growth inhibitor studies of the compound of Example 5 were carried out in 1% carboxymethyl-cellulose against human COLO 205 solid tumors in SCID mice by ip administration with a schedule of Q4D×3 or by iv administration with a schedule of (Q1D×5)×2. Tumor growth inhibition studies of the compound at Example 6 were carried out in distilled H2 O against human COLO 205 solid tumor in SCID mice by iv administration with a schedule of (Q2D×3)×2 or in 2.5% cremophor against human COLO 205 solid tumor in SCID mice by iv administration with a schedule of (Q2D×3)×2.

In brackets after ≈: the same amount, converted by molar mass. Counter-ions that a name gives are not always drawn.

As for `O=c1[nH]cc(F)c(=O)[nH]1` [Example 5-Fu, reference compound], the DNA intercalating activity entry in series [1] (negative control) is “did not show DNA intercalating activity”. Consider `COc1cccc2c1C(=O)c1c(O)c3c(c(O)c1C2=O)C[C@@](O)(C(=O)CO)C[C@@H]3O[C@H]1C[C@H](N)[C@H](O)[C@H](C)O1` [adriarnycin, reference compound], for which the EC50 in series [1] (pUC19 plasmid, 30 minutes, 25° C., pH 7.4, read-out: SC50 (50% shift concentration)) fell in the range of 10 to 15 µM.

In series [2], `COc1ccc2nc3cc(Cl)ccc3c(NCCCN(C)CCCNc3c4ccc(Cl)cc4nc4ccc(OC)cc34)c2c1` [Example 12 (acetic acid salt)] returned a solubility of 10000 µg/mL.

With `COc1ccc2nc3cc(Cl)ccc3c(NCCCNCCCNc3c4ccc(Cl)cc4nc4ccc(OC)cc34)c2c1` [Example 6], in series [3] (2.5% cremophor, iv, (Q2D×3)×2), the “in vivo antitumor activity, dose-response relationship” value is on record as “had the dose-response relationship of in vivo antitumor activity”. Moreover, in series [3] (distilled H2O, iv, (Q2D×3)×2), the “in vivo antitumor activity” value is “demonstrated in vivo antitumor activity”. Also, in series [2], the solubility came to 8000 µg/mL (≈ 13 mM).

In the case of `COc1ccc2nc3cc(Cl)ccc3c(NCCCNCCCNc3c4ccc(Cl)cc4nc4ccc(OC)cc34)c2c1` [Example 5], the “in vivo antitumor activity” value in series [3] (1% carboxymethyl-cellulose, ip, Q4D×3) is recorded as “did not show in vivo antitumor activity”; in series [3] (1% carboxymethyl-cellulose, iv, (Q1D×5)×2), “did not show in vivo antitumor activity”.

As usually defined, the solubility is the concentration that dissolves in the medium under given conditions.
